Like-named read-outs stand apart in the source and are kept apart here.
Assays:
[1] = tested on: cyclin D1, cyclin D2 and cyclin E; experiment: Western blot, cyclins in LNCaP cells; format: cell-based, human; conditions: fisetin 10-60 μM, 48 h
Procedure: (§1) Protein extraction and western blotting. Following the treatment of LNCaP cells with fisetin (10-60 μM; 48 h), the media was aspirated, the cells were washed with cold PBS (pH 7.4), and ice-cold lysis buffer (50 mM Tris-HCl, 150 mM NaCl, 1 mM EGTA, 1 mM EDTA, 20 mM NaF, 100 mM Na3VO4, 0.5% NP-40, 1% Triton X-100, 1 mM PMSF (pH 7.4)) with freshly added protease inhibitor cocktail (Protease Inhibitor Cocktail Set III, Calbiochem, La Jolla, Calif.) over ice for 30 min. The cells were scraped and the lysate was collected in a microfuge tube and passed through a needle to break up the cell aggregates. […]
(§2) For western blotting, 30-50 μg protein was resolved over 8-12% polyacrylamide gels and transferred to a nitrocellulose membrane. The blot was blocked in blocking buffer (5% nonfat dry milk/1% Tween 20; in 20 mM TBS, pH 7.6) for 1 hr at room temperature, incubated with appropriate monoclonal or polyclonal primary antibody in blocking buffer for 1.5 h to overnight at 4° C., followed by incubation with anti-mouse or anti-rabbit secondary antibody horseradish peroxidase conjugate obtained from Amersham Life Science Inc. and detected by chemiluminescence and autoradiography using XAR-5 film obtained from Eastman Kodak Co. (Rochester, N.Y., USA). […]

CWR22Ru1 cells = experiment: MTT cell viability assay, CWR22Ru1 cells; format: cell-based; conditions: Homo sapiens, read-out: decrease in cell viability; for cytotoxicity at 10 µM: CWR22Ru1, fisetin 10 μM; for cytotoxicity at 20 µM: CWR22Ru1, fisetin 20 μM; for cytotoxicity at 40 µM: CWR22Ru1, fisetin 40 μM; for cytotoxicity at 60 µM: CWR22Ru1, fisetin 60 μM
Procedure: (§3) obtained from ATCC (Manassas, Va.). LNCaP cells were cultured in Dulbecco's Modified Eagle's medium supplemented with 5% heat-inactivated fetal bovine serum and 1% penicillin/streptomycin (P-S). CWR22Ru1 and PC-3 cells were grown in RPMI 1640 (Invitrogen) supplemented with 10% fetal bovine serum and 1% P-S. Human prostate epithelial cells (PrEC) were obtained from Cambrex Bioscience (Walkersville, Md.) and grown in prostate epithelial basal cell medium (Cambrex Bioscience) according to the manufacturer's instructions. The cells were maintained under standard cell culture conditions at 37° C. and 5% CO2 in a humid environment. Fisetin dissolved in dimethyl sulfoxide (final concentration 0.1% v/v) was used for the treatment of cells. The cells (60-70% confluent) were treated with fisetin (10-60 μM) for 24 and 48 h in complete growth medium.
(§4) Cell viability. The effect of fisetin on the viability of cells was determined by 3-[4,5-dimethylthiazol-2-yl]-2,5-diphenyl tetrazoliumbromide assay. LNCaP, CWR22Ru1, PC-3 and PrEC cells were plated at 1×10^4 cells per well in 200 μl of complete culture medium containing 10-60 μM concentrations of fisetin in 96-well microtiter plates for 24 and 48 h. After incubation for specified times at 37° C. in a humidified incubator, 3-[4,5-dimethylthiazol-2-yl]-2,5-diphenyl tetrazoliumbromide (5 mg/ml in PBS) was added to each well and incubated for 2 h, after which the plate was centrifuged at 1,800×g for 5 min at 4° C. The absorbance was recorded on a microplate reader at the wavelength of 540 nm. The effect of fisetin on growth inhibition was assessed as percent cell viability where DMSO-treated cells were taken as 100% viable. DMSO at the concentrations used was without any effect on cell viability.

LNCaP cells = experiment: MTT cell viability assay, LNCaP cells; format: cell-based; conditions: Homo sapiens, read-out: decrease in cell viability; for cytotoxicity at 10 µM: fisetin 10 μM; for cytotoxicity at 20 µM: fisetin 20 μM; for cytotoxicity at 40 µM: fisetin 40 μM; for cytotoxicity at 60 µM: fisetin 60 μM
Procedure: as §3, §4

Bax and Bcl-2 = experiment: Western blot, Bax and Bcl-2 in LNCaP cells; format: cell-based, human; conditions: fisetin 10-60 μM, 48 h
Procedure: Protein extraction and western blotting. Following the treatment of LNCaP cells with fisetin (10-60 μM; 48 h), the media was aspirated, the cells were washed with cold PBS (pH 7.4), and ice-cold lysis buffer (50 mM Tris-HCl, 150 mM NaCl, 1 mM EGTA, 1 mM EDTA, 20 mM NaF, 100 mM Na3VO4, 0.5% NP-40, 1% Triton X-100, 1 mM PMSF (pH 7.4)) with freshly added protease inhibitor cocktail (Protease Inhibitor Cocktail Set III, Calbiochem, La Jolla, Calif.) over ice for 30 min. The cells were scraped and the lysate was collected in a microfuge tube and passed through a needle to break up the cell aggregates. The lysate was cleared by centrifugal ion al 14,000 g for 15 min at 4° C. and the supernatant (whole cell lysate) was used or immediately stored at […].
For western blotting, 30-50 μg protein was resolved over 8-12% polyacrylamide gels and transferred to a nitrocellulose membrane. The blot was blocked in blocking buffer (5% nonfat dry milk/1% Tween 20; in 20 mM TBS, pH 7.6) for 1 hr at room temperature, incubated with appropriate monoclonal or polyclonal primary antibody in blocking buffer for 1.5 h to overnight at 4° C., followed by incubation with anti-mouse or anti-rabbit secondary antibody horseradish peroxidase conjugate obtained from Amersham Life Science Inc. and detected by chemiluminescence and autoradiography using XAR-5 film obtained from Eastman Kodak Co. (Rochester, N.Y., USA). Densitometric measurements of the band in Western blot analysis were performed using digitalized scientific software program UN-SCAN-IT (Silk Scientific Corporation. Orem, Utah.

Bak, Bcl-xL, Bad and Bid = experiment: Western blot, Bak, Bad, Bid and Bcl-xL in LNCaP cells; format: cell-based, human; conditions: fisetin 10-60 μM, 48 h
Procedure: as §1, §2

[2] = tested on: Bad, Bax, Bcl2 and Bcl-xL; experiment: Silencing of Akt by siRNA, Bcl2-family proteins in LNCaP cells; format: cell-based, human; conditions: LNCaP transfected with Akt-siRNA, fisetin 40 μM, 48 h
Procedure: Silencing of Akt by Small Interfering RNA. LNCaP cells were transfected with Akt-siRNA (75 nmol) and scrambled siRNA (75 nmol) procured from Dharmacon (Lafayette, Colo.) using the Nucleofection Kit R specific for LNCaP transfection from Amaxa Biosystems (Gaithersburg, Md.). Cells were resuspended in a solution from nucleofector kit R following the manufacturer's guidelines. 100 μl of nucleofector solution R was mixed with 2×10^6 cells and siRNA. They were then transferred to the cuvette provided with the kit and were nucleofected with an Amaxa Nucleofector apparatus. Cells were transfected using the T-001 pulsing parameter and were transferred into 100-mm plates containing 37° C. prewarmed culture medium. After transfection, cells were cultured and the medium was replaced with fresh medium. Cells were treated with 40 μM fisetin for 48 h, and protein lysates were prepared. Using 2 μg of GFP we observed 70-80% transfection efficiency with this protocol.

PrEC cells = experiment: MTT cell viability assay, normal prostate epithelial (PrEC) cells; format: cell-based, human; conditions: fisetin 10-60 μM
Procedure: as §3
Cell viability. The effect of fisetin on the viability of cells was determined by 3-[4,5-dimethylthiazol-2-yl]-2,5-diphenyl tetrazoliumbromide assay. […] The absorbance was recorded on a microplate reader at the wavelength of 540 nm. The effect of fisetin on growth inhibition was assessed as percent cell viability where DMSO-treated cells were taken as 100% viable. […]

XIAP and Smac/DIABLO = experiment: Western blot, XIAP and Smac/DIABLO in LNCaP cells; format: cell-based, human; conditions: fisetin 10-60 μM, 48 h
Procedure: as §1, §2

PC-3 cells = experiment: MTT cell viability assay, PC-3 cells; format: cell-based; conditions: Homo sapiens, read-out: decrease in cell viability; for cytotoxicity at 10 µM: PC-3, fisetin 10 μM; for cytotoxicity at 20 µM: PC-3, fisetin 20 μM; for cytotoxicity at 40 µM: PC-3, fisetin 40 μM; for cytotoxicity at 60 µM: PC-3, fisetin 60 μM
Procedure: as §3, §4

`O=c1c(O)c(-c2ccc(O)c(O)c2)oc2cc(O)ccc12` [fisetin, 3,3′,4′,7-tetrahydroxyflavone] was tested, and the “protein expression of cyclins D1, D2 and E” value [1] was “dose-dependent decrease”, the cytotoxicity at 10 µM (CWR22Ru1 cells; 24 h) was 12% and the cytotoxicity at 10 µM (CWR22Ru1 cells; 48 h) was 18%. For the same molecule, the cytotoxicity at 20 µM (CWR22Ru1 cells; 24 h) was 26%, the cytotoxicity at 20 µM (CWR22Ru1 cells; 48 h) was 34% and the cytotoxicity at 40 µM (CWR22Ru1 cells; 24 h) was 38%. The cytotoxicity at 40 µM (CWR22Ru1 cells; 48 h) was 44%, the cytotoxicity at 60 µM (CWR22Ru1 cells; 24 h) was 52% and the cytotoxicity at 60 µM (CWR22Ru1 cells; 48 h) was 55%. For the same molecule, the cytotoxicity at 10 µM (LNCaP cells; 24 h) was 15%, the cytotoxicity at 10 µM (LNCaP cells; 48 h) was 19% and the cytotoxicity at 20 µM (LNCaP cells; 24 h) was 33%. The cytotoxicity at 20 µM (LNCaP cells; 48 h) was 40%, the cytotoxicity at 40 µM (LNCaP cells; 24 h) was 45% and the cytotoxicity at 40 µM (LNCaP cells; 48 h) was 49%. For the same molecule, the cytotoxicity at 60 µM (LNCaP cells; 24 h) was 57%, the cytotoxicity at 60 µM (LNCaP cells; 48 h) was 62% and the “protein expression of Bax” value (Bax and Bcl-2) was “significant increase”. For the same molecule, the “protein expression of Bcl-2” value (Bax and Bcl-2) was “significantly decreased”, the “ratio of Bax to Bcl-2” value (Bax and Bcl-2) was “significant dose-dependent shift” and the Bcl-xL expression (Bak, Bcl-xL, Bad and Bid) was “significant decrease”. The “protein expression of Bak, Bad and Bid” value (Bak, Bcl-xL, Bad and Bid) was “significant increase”, the “Bad, Bax, Bcl2 and Bcl-xL protein expression in Akt-siRNA treated cells” value [2] was “augmented the increase in Bad and Bax and decrease in Bcl2 and Bcl-xL” and the “effect on cell viability” value (PrEC cells; 24 h) was “minimal effect”. For the same molecule, the “effect on cell viability” value (PrEC cells; 48 h) was “minimal effect”, the “protein expression of Smac/DIABLO” value (XIAP and Smac/DIABLO) was “induction” and the “protein expression of XIAP” value (XIAP and Smac/DIABLO) was “inhibition”. The cytotoxicity at 10 µM (PC-3 cells; 24 h) was 7%, the cytotoxicity at 10 µM (PC-3 cells; 48 h) was 11% and the cytotoxicity at 20 µM (PC-3 cells; 24 h) was 18%. For the same molecule, the cytotoxicity at 20 µM (PC-3 cells; 48 h) was 25%, the cytotoxicity at 40 µM (PC-3 cells; 24 h) was 24% and the cytotoxicity at 40 µM (PC-3 cells; 48 h) was 32%. The cytotoxicity at 60 µM (PC-3 cells; 24 h) was 33% and the cytotoxicity at 60 µM (PC-3 cells; 48 h) was 46%.

From patent publication US20100010078A1, “METHODS OF TREATING ANDROGEN DEPENDENT PROSTATE CANCER BY ADMINISTERING AN ACTIVE PHARMACEUTICAL INGREDIENT BEING FISETIN, 3,3',4',7-TETRAHYDROXYFLAVONE OR A DERIVATIVE THEREOF, IN AN ORAL, TRANSDERMAL OR TOPICAL DOSAGE FORM” (priority 2008, published 2010)
